These results are taken from ChEMBL document CHEMBL1201862, “PubChem BioAssay data set” (2004).

Format in all cases: functional
For test [1], the target named is T1, Protein RecA (Mycobacterium tuberculosis, UniProt P9WHJ3).
T1 sequence (P9WHJ3 whole entry): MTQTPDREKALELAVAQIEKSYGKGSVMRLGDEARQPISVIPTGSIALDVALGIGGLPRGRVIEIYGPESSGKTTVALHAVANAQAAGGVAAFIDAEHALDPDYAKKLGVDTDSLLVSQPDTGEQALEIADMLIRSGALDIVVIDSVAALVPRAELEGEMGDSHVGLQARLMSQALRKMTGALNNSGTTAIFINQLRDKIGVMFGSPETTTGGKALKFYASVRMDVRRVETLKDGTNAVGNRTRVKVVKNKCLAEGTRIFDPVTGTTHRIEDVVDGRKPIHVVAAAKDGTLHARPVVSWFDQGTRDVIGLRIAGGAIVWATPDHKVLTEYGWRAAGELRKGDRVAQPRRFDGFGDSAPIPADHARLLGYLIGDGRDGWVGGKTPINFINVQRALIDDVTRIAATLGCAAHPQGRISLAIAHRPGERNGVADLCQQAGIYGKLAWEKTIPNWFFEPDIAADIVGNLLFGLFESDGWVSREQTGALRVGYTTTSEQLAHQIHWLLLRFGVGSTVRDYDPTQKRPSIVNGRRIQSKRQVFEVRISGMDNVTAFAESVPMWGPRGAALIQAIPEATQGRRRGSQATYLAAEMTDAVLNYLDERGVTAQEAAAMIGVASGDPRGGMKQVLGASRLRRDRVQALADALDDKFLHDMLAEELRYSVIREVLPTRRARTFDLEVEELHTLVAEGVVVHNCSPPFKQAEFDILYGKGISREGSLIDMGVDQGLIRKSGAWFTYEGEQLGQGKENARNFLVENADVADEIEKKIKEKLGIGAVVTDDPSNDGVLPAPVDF
As to the kind of experiment: Fluorescence Cell-Free Homogeneous Dose Retest to Identify Inhibitors of RecA-Intein Splicing Activity. [Related pubchem assays (depositor defined):AID2097, AID2223, AID489010, AID492950].

Test [2] concerns the target T2, Replicative DNA helicase DnaB (Mycobacterium tuberculosis, UniProt P9WMR3).
T2 sequence (P9WMR3 whole entry): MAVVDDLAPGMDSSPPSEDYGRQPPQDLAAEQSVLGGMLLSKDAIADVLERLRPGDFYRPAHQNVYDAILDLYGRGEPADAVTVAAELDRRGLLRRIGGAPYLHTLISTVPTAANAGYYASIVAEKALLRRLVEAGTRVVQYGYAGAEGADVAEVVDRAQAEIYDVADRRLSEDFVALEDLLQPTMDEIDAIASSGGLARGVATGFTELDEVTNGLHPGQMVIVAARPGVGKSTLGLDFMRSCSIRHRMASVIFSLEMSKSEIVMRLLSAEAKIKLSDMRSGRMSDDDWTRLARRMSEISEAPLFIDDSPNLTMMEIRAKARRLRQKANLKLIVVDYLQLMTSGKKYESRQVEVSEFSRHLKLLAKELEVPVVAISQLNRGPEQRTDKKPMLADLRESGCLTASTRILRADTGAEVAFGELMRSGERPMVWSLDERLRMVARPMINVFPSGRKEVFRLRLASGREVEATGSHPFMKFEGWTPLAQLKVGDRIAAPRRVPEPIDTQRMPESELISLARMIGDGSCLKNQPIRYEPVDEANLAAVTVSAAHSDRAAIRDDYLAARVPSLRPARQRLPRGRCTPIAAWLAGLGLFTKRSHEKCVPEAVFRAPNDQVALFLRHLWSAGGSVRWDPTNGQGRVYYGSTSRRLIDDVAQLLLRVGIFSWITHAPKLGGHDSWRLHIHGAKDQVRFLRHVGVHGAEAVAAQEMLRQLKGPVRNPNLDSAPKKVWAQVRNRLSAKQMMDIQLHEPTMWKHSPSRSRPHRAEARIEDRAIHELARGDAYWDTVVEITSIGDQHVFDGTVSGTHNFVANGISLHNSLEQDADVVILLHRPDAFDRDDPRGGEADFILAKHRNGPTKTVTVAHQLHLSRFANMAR
As to the kind of experiment: DnaB intein splicing inhibitors, dose response, biochemical, cell-free fluorescence (AID 449749).

Test [3] deals with T3, Caspase-3 (Homo sapiens, UniProt P42574).
T3 sequence (P42574 whole entry): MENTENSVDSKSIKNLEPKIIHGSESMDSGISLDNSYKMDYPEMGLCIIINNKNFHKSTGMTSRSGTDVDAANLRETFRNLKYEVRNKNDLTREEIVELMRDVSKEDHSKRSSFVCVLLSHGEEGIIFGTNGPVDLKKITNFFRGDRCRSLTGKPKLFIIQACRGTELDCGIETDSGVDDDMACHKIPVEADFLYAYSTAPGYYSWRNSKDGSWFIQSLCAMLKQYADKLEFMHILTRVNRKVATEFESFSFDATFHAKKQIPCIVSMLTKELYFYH

Test [4] addresses T4, Sentrin-specific protease 7 (Homo sapiens, UniProt Q9BQF6).
T4 sequence (Q9BQF6 whole entry): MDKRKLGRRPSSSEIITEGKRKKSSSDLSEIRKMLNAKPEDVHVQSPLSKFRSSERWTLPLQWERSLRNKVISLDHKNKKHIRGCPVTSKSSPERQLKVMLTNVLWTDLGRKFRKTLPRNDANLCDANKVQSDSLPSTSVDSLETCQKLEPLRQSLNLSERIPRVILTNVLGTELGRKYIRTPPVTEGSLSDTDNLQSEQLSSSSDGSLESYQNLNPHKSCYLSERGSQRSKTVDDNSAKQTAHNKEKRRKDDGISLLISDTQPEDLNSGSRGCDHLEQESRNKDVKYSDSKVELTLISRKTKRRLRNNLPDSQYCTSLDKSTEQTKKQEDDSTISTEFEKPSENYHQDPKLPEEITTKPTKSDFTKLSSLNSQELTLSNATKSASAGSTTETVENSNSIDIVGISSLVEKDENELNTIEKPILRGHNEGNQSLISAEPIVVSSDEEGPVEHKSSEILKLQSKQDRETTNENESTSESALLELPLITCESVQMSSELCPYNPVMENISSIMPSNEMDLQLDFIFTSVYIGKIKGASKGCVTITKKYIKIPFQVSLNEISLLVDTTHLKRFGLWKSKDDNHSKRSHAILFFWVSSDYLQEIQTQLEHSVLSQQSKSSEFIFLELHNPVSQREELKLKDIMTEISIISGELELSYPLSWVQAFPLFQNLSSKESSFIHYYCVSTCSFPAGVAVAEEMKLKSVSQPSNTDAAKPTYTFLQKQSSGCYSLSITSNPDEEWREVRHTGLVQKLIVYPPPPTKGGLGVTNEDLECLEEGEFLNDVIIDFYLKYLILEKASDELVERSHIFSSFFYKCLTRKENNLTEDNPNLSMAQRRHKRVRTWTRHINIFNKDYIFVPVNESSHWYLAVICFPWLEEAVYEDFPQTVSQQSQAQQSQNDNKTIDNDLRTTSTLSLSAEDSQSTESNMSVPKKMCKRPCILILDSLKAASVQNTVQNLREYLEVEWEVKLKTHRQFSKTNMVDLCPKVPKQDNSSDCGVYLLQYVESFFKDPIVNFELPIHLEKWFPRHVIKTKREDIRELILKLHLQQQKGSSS

Each structure is given as a SMILES string. The source made the active and inactive calls. Some results are limits rather than exact numbers.

Broadly, the EC50 is the concentration needed to bring the measured effect to its halfway point. Broadly, the AC50 is the concentration giving half of the maximal activity seen. The term IC50 denotes the midpoint of a concentration-inhibition curve.

On to `Cc1cccc(C)c1-n1cccc1/C=C1\SC(=S)N(c2cccc(C(=O)O)c2)C1=O`, for which the EC50 in test [1] is 9.09 µM (active). Further, in test [2], the concentration at half-maximal activity (AC50) is 3.26 µM (active).

On to `Oc1ccc(/C=N/Nc2cc(N3CCCC3)nc(N3CCCC3)n2)cc1`, for which the IC50 was > 100 µM (inactive) in test [3] and 31 µM (active) in test [4].

`COc1ccc(S(=O)(=O)/N=C2\C=C(Nc3ccc(O)cc3)C(=O)c3ccccc32)cc1`: the concentration for a half-maximal effect (EC50) in test [1] was 0.141 µM (active). Further, the AC50 in test [2] was > 380 µM (inconclusive).

As for `COc1ccc(/C=N/Nc2cc(N3CCCC3)nc(N3CCCC3)n2)cc1`, the IC50 is > 100 µM (inactive) in test [3] and 5.23 µM (active) in test [4].
